Reference: US6906061B2, “Pharmaceutical agent containing Rho kinase inhibitor” (Mitsubishi Pharma Corporation, priority 1996, dated 2005)
Counter-ions that a name gives are not always drawn. Like-named read-outs stand apart in the source and are kept apart here.

Experiments:
[1] = system: mouse femoral bone; assay: Inhibition of bone resorption (in vitro), mouse femoral bone; conditions: 6 days incubation of ICR mouse femoral bone
Experimental: Inhibition of Bone Resorption (in vitro)
The determination of the in vitro inhibition of bone resorption using mouse femoral bone followed the method below.
The femoral bone of 3-6 week old male ICR mice was aseptically removed, and bone marrow cavity was washed with F12 medium, containing 10% heat inactivated fetal bovine serum, penicillin G calcium (100 units/ml), kanamycin sulfate (60 μg) and 0.15% sodium hydrogencarbonate (hereinafter the medium is to be referred to as culture solution). After washing the bone marrow cavity and then removing the soft tissue adhered to the bone, the bone was subjected to incubation. The test compound was once dissolved in dimethyl sulfoxide (DMSO) to give a 10 mg/ml solution, which was diluted 1000-fold with the culture solution to give a 10 μg/ml solution. The test compounds were respectively added to the concentration shown in Table 7 and, using this culture solution (1.2 ml), the ICR mouse femoral bone was incubated in a 24 well plate for 6 days under the conditions of 5% CO2 gas, 95% air. After the completion of the incubation, the culture supernatant was recovered, and the amount of calcium suspending in the culture supernatant was quantitatively determined by the chelate method using o-cresolphthalein. The bone resorption inhibitory action of the test compound was calculated by the following formula using the incubation of the femoral bone without addition of the test compound as a control. [formula] This experiment was done with 4 cases in each group. As the control, the same amount of DMSO alone as in the case with the addition of the test compound was used.

[2] = system: BALB/c spleen cells stimulated with C57BL/6 spleen cells; assay: Inhibition of mouse allogenic mixed lymphocyte reaction; type: cell-based; conditions: 4 days culture, MTT, read-out: Mouse allogenic MLR inhibitory activity IC50
Experimental: Inhibition of Mouse Allogenic Mixed Lymphocyte Reaction
A mouse allogenic mixed lymphocyte reaction (hereinafter to be referred to as mouse allogenic MLR) was performed by mixed culture (equal ratio) of the spleen cell of BALB/c mice as the reaction cell and the spleen cell of C57BL/6 mice treated with mitomycin C as stimulated cell.
The reaction cells were prepared by the following method. Spleen was removed from 5-6 week old BALB/c mice and treated with RPMI1640 medium (containing kanamycin sulfate (60 μg/ml), penicillin G potassium (100 units/ml), N-2-hydroxyethylpiperazine-N′-2-ethanesulfonate (10 mM), 0.1% sodium hydrogencarbonate and L-glutamin (2 mM)) supplemented with 5% heat inactivated fetal bovine serum (FBS) to give a single cell suspension of the spleen cell. After hemolysis treatment, the suspension was adjusted to10^7 cells/ml with RPMI1640 medium containing 10^−4 M 2-mercaptoethanol and 10% FBS and used as a reaction cell suspension.
The reaction cell suspension (50 μl) prepared by the above method, stimulated cell suspension (50 μl) and the test compound (100 μl) prepared using RPMI1640 medium containing 10% FBS were added to a 96 well plate and incubated at 37° C. under 5% CO2 gas, 95% air for 4 days.
A pigment assay using 3-(4,5-dimethylthiazol-2-yl)-2,5-diphenyltetrazolium bromide (MTT) was applied for the determination of lymphocyte transformation reaction.
After the completion of culture, the supernatant (100 μl) in each well was removed, and 5 mg/ml MTT solution (20 μl) was added to each well, which was followed by incubation at 37° C. for 4 hours. Then, a 0.01 N hydrochloric acid solution (100 μl) containing 10% sodium dodecyl sulfate was added and the mixture was incubated at 37° C. overnight. The resulting purple crystals of formazan was dissolved and absorbance at 550 nm was measured using a microplate absorption meter, which was used as the index of lymphocyte transformation reaction of the mouse allogenic MLR. The inhibition of mouse allogenic MLR was evaluated by calculating the inhibition percentage by the following formula The results are shown in Table 7.

[3] = system: normal human umberical vascular endothelial cells; assay: Inhibition of angiogenesis (lumen formation in vascular endothelial cells); type: cell-based; conditions: 18 hours, compared with the control, number rises with inhibition of lumen formation
Experimental: Inhibition of Angiogenesis
The inhibition of angiogenesis was evaluated by using the inhibition of lumen formation in vascular endothelial cell as an index. To be specific, normal human umberical vascular endothelial cells (KURABO […] LTD.) were suspended in E-GMUV medium at 5.5×10^4 cells/ml and 400 μl therefrom was added on matrigel plate (EHS sarcoma-derived reconstructed basement membrane, Collaborative Biomedical Products). Then, the test compound (1 mM solution, 4 μl) was added and the cells were incubated at 37° C. under 5% CO2 gas for 18 hours. After the completion of the incubation, the number of lumen per predetermined area was counted under a microscope. Inasmuch as the number of lumen increases by the inhibition of lumen formation, the test compound was evaluated by comparison of the number of lumen with the control.

[4] = system: hind limb skin blood flow; assay: Peripheral blood flow increasing action in STZ-induced diabetic rats; type: in vivo, rat; conditions: intravenous
Experimental: Peripheral Blood Flow Increasing Action
Streptozotocin (STZ, 65 mg/kg) was intravenously injected to male SD rats (body weight 200-300 g) to prepare diabetic rats. One month later, STZ-induced diabetic rats were anesthetized with pentobarbital sodium and the blood flow in the hind limb skin was measured with laser blood flowmeter (ALF21R, Advance). The test compound was intravenously administered via catheter dwelled in the carotid arteries, and hind limb skin blood flow increasing action was observed. The blood flow increasing action of the test compound was expressed by increase percentage from the blood flow before administration.

[5] = system: Bovine Aorta Thoracia Rho Kinase; assay: Rho kinase inhibitory action (inhibition of bovine aorta thoracia Rho kinase); type: biochemical; conditions: test compound 10 μM
Experimental: Rho Kinase Inhibitory Action (Inhibition of Bovine Aorta Thoracia Rho Kinase)
The Rho kinase was prepared from bovine aorta of thorax by partial purification as in the following. The artery was minced and homogenized with a 9-fold amount of 50 mM Tris-hydroxymethylaminomethane (Tris) (pH=7.4), 1 mM dithiothreitol, 1 mM EGTA, 1 mM EDTA, 100 μM p-amidinophenylmethylsulfonyl fluoride, 5 μM E-64, 5 μM leupeptine and 5 μM pepstatin A. The homogenate was centrifuged (10,000×g, 30 minutes) to give supernatant. The supernatant was adsorbed onto a hydroxyapatite column. The column was washed with 0.2M phosphate buffer (pH=6.8). The standard product of Rho kinase was eluted with 0.4M phosphate buffer (pH=6.8). The Rho kinase was assayed as follows.
A reaction mixture (total amount 50 μl) containing 50 mM Tris, 1 mM EDTA, 5 mM MgCl2, 50 μg/ml histone, 10 μM GTPγS, 100 μg/ml Rho, 2 μM [^32P]ATP, the Rho kinase (3 μl) prepared in the above and the test compound was reacted at 30° C. for 5 minutes. The reaction was terminated by the addition of 25% trichloroacetic acid (TCA) solution (1 ml) and the mixture was stood at 4° C. for 30 minutes. Then, the mixture was filtered through a membrane filter (HAWP type, Millipore), and the radioactivity of the filter was counted on a liquid scintillation counter. The inhibitory action of the test compound was calculated from the following formula based on the comparison of the radioactivity with the sample without the test compound (control).

[6] = system: CEM cells (human T cell type established cell); assay: Inhibition of VLA integrin activation (phorbol ester-induced adhesion of CEM cells to fibronectin); type: cell-based; conditions: CCRF-CEM, concentration 100 μM, PMA-induced adhesion, read-out: Adhesion induction inhibition (%)
Experimental: Inhibition of VLA (Very Late Antigen) Integrin Activation
As the index of the activation by VLA integrin, phorbol ester-induced adhesion of CEM cells (human T cell type established cell) to fibronectin, which is a ligand of VIA integrin, was measured. The inhibitory action on the induced adhesion by the test compound was determined by the following method.
CEM cells were washed with RPMI1640 medium containing 0.5% bovine serum albumin (BSA), 10 mM HEPES, 2 mM L-glutamin, 1 mM sodium pyruvate, 60 μg/ml kanamycin sulfate and 1.5 mg/ml sodium hydrogencarbonate (hereinafter this medium is referred to as culture solution) and suspended in this medium for use in the following experiment. To each well of a 96 well plate coated with human fibronectin were added CEM cells (5×10^4) and the test compound dissolved in the culture solution (final concentration 1-100 μM) to the amount of 100 μl, and the plate was stood at 37° C. for 1 hour. Then, PMA (phorbol 12-myristate 13-acetate, TPA; final concentration 10 ng/ml) and the test compound were added to the amount of 200 μl, and the plate was stood at 37° C. for 30 minutes. Each well was washed twice with the culture solution (200 μL) at 37° C., and the LDH (lactate dehydrogenase) activity of the cells adhered to the plate was determined, whereby the amount of the adhered cell was measured. Based on the results obtained by the above-mentioned method, the inhibitory action of the test compound on the induced adhesion was calculated by the following formula The results are shown in Table 6. Inhibition (%) of adhesion induction=(a−b)/(a−c)×100 • a=number of cells adhered with the addition of PMA • b=number of cells adhered with the addition of test compound and PMA • c=number of cells adhered without stimulation

melting point	SMILES	further results
272 °C (dec.)	O=C(Nc1ccnc2[nH]ccc12)C1CCN(CCc2ccccc2)CC1 (as salt: hydrochloride) (hydrate or solvate) [Compound 198, N-(1H-pyrrolo[2,3-b]pyridin-4-yl)-1-(2-phenylethyl)-4-piperidinecarboxamide]	
246 °C (dec.)	N=C(N)N1CCC(C(=O)Nc2ccnc3[nH]ccc23)CC1 (as salt: hydrochloride) (hydrate or solvate) [Compound 199, N-(1H-pyrrolo[2,3-b]pyridin-4-yl)-1-amidino-4-piperidinecarboxamide]	
260 °C (dec.)	O=C(Nc1ccnc2[nH]ccc12)C1CCN(Cc2ccccc2)CC1 (as salt: hydrochloride) (hydrate or solvate) [Compound 201, N-(1H-pyrrolo[2,3-b]pyridin-4-yl)-1-benzyl-4-piperidinecarboxamide]	
259 to 261 °C (dec.)	O=C(Nc1ccnc2[nH]ncc12)C1CCN(CCc2ccccc2)CC1 (as salt: hydrochloride) (hydrate or solvate) [Compound 202, N-(1H-pyrazolo[3,4-b]pyridin-4-yl)-1-(2-phenylethyl)-4-piperidinecarboxamide]	
240 to 244 °C (dec.)	O=C(Nc1ccnc2[nH]ncc12)C1CCN(CCCc2ccccc2)CC1 (as salt: hydrochloride) (hydrate or solvate) [Compound 203, N-(1H-pyrazolo[3,4-b]pyridin-4-yl)-1-(3-phenylpropyl)-4-piperidinecarboxamide]	
276 °C (dec.)	O=C(Nc1ccnc2[nH]ccc12)C1CCN(CCCc2ccccc2)CC1 (as salt: hydrochloride) [Compound 200, N-(1H-pyrrolo[2,3-b]pyridin-4-yl)-1-(3-phenylpropyl)-4-piperidinecarboxamide]	

More lines, now with the values behind:

SMILES	melting point	further results
O=C(Nc1ccnc2[nH]ccc12)C1CCNCC1 (as salt: hydrochloride) (hydrate or solvate) [Compound 193, N-(1H-pyrrolo[2,3-b]pyridin-4-yl)-4-piperidinecarboxamide]	273 °C (dec.)	
O=C(Nc1ccnc2[nH]ncc12)C1CCNCC1 (as salt: hydrochloride) (hydrate or solvate) [Compound 194, N-(1H-pyrazolo[3,4-b]pyridin-4-yl)-4-piperidinecarboxamide]	277 °C (dec.)	
O=C(Nc1ccnc2c1CCN2)C1CCNCC1 (as salt: hydrochloride) (hydrate or solvate) [Compound 197, N-(2,3-dihydro-1H-pyrrolo[2,3-b]pyridin-4-yl)-4-piperidinecarboxamide]	235 °C (dec.)	
COCn1ncc2c(NC(=O)C3CCNCC3)ccnc21 (hydrate or solvate) [Compound 196, N-(1-methoxymethyl-1H-pyrazolo[3,4-b]pyridin-4-yl)-4-piperidinecarboxamide]	240 to 241 °C	
CC(N)[C@H]1CC[C@H](C(=O)Nc2ccnc3[nH]ncc23)CC1 (single isomer, unassigned; (+)) [Compound 112.2HCl, (+)-trans-N-(1H-pyrazolo[3,4-b]pyridin-4-yl)-4-(1-aminoethyl)cyclohexanecarboxamide]		inhibition at 100 µM ([1]; 144 h): 75.7%; IC50 ([2]; Mus musculus, Lymphocyte, 96 h): 4.4 µM
CC(C)(N)[C@H]1CC[C@H](C(=O)Nc2ccnc3[nH]ccc23)CC1 [Compound 110.2HCl.H2O, trans-N-(1H-pyrrolo[2,3-b]pyridin-4-yl)-4-(11-amino-1-methylethyl)cyclohexanecarboxamide]		Bone resorption inhibition % (μM) ([1]; 100 μM): 74.0(100) %; IC50 [2]: 1.1 µM; Number of lumen (10 μM) [3]: 203%
C[C@@H](N)c1ccc(C(=O)Nc2ccnc3[nH]ncc23)cc1 [Compound 166.2HCl.H2O, (R)-(+)-N-(1H-pyrazolo[3,4-b]pyridin-4-yl)-4-(1-aminoethyl)benzamide]		Increase in skin blood flow ± standard error (%) ([4]; 0.3 μg): 143.2 ± 25.4%; Increase in skin blood flow ± standard error (%) ([4]; 1 μg): 165.9 ± 42.5%
O=S(=O)(c1cccc2cnccc12)N1CCCNCC1 [Compound 204.2HCl, 1-(5-isoquinolinesulfonyl)homopiperazine]		Inhibition (%) [5]: 93%; inhibition at 100 µM [6]: 82%; Number of lumen (10 μM) [3]: 133%
